# Test results from US11560384B2, “Benzonorbornadiene derivatives and reactions thereof” (University of Utah Research Foundation, priority 2017, dated 2023).
# Several values for one entry are separate records, joined by “and”; a condition that tells them apart may be missing. Identical values can stand only once. Entries after “also recorded” stand apart in the source; their conditions may differ.
# How the values were obtained:
# [1] = Second-order reaction kinetics with tetrazine DPTz (UV-Vis absorbance at 525 nm); type: physicochemical; settings: for Second-order rate constant (k2): with DPTz, 37° C., λabs = 525 nm
# Method: (§1) UV-VIS photospectrometic kinetic measurements were performed on a BioTek Synergy HT Microplate Reader (BioTek, USA) in a 96-well plate formate. In further detail, for analysis of reaction kinetics in DMSO and DMSO/H2O (9:1, v/v), stock solutions of benzonorbornadiene derivatives 1-3 (60 mM or 12.5 mM) and tetrazine (15 mM or 2.5 mM) in DMSO were prepared. Final solutions containing tetrazine (2 mM or 0.25 mM) and 1-3 (20 mM, 30 mM, 40 mM and 50 mM or 2.5 mM, 3.75 mM, 5 mM, 6.25 mM) were prepared in 96-well plates and thoroughly mixed at 37° C. for UV-Vis measurements. For analysis of reaction kinetics in DMSO/PBS (3:2, v/v), final solutions containing tetrazine (0.05 mM) and 1-2 (0.5 mM), tetrazine alone (0.05 mM) were prepared in 96-well plates and thoroughly mixed at 37° C. for UV-Vis measurements. The reactions were monitored at 525 nm, which is a local absorbance maximum of tetrazine. All kinetic experiments were run in triplicates. Pseudo-first order curve fitting was performed with Origin 8.0 software using the exponential formula: y=A1×e^kx+y0.
# A549 lung cancer cells = test: Cell proliferation / cytotoxicity assay (CellTiter-Glo); type: cell-based; settings: compound alone
# Method: Cell proliferation assays were performed on an Envision 2104 Multilabel Reader (PerkinElmer, USA). Specifically, A549 lung cancer cells (ATCC, USA) were maintained in a humidified CO2 (5%) incubator at 37° C. in DMEM (Thermo Fisher, USA) supplemented with 10% fetal bovine serum in the presence of 1% Penicillin-Streptomycin-Glutamine (Thermo Fisher, USA) and 0.2% Normocin (InvivoGen, USA). The cells were plated in 96-well TC treated plates (PerkinElmer, USA) at a 5000 cells/well density 24 h prior to the experiment. Prodrug 5, compound 2 (2 mM in DMSO) and PEG-Tz (40 mM in DMSO) were serially diluted in pre-warmed culture medium. Prodrug 5 and compound 2 are in a series of final concentrations ranging from 0.001 to 10 μM with 200 μM, 100 μM, 50 μM, 25 μM PEG-Tz before the experiment and added to the wells (100 μL final volume per well). Doxorubicin was used as the positive control with same series of concentrations ranging from 0.001 to 10 μM. […] After 72 h incubation at 37° C., cell proliferation was assessed by a CellTiter-Glo® viability assay. Lyophilized CellTiter Glo Substrate (Promega, USA) was dissolved in the CellTiter Glo Buffer to get CellTiter-Glo® Reagent, and from which 100 μL was added to each well. After 15 min incubation at 25° C., the medium was gently measured with Envision 2104 Multilabel Reader (PerkinElmer, USA) to get the luminescent based on quantitation of the ATP present, an indicator of metabolically active cells. The proliferation assay was performed in triplicate (n=3). EC50 values were derived from the normalized cell growth and corresponding sigmoidal curves were fitted and generated with Origin 8.0.
# [2] = Second-order reaction kinetics with tetrazine PEG-Tz (UV-Vis absorbance at 525 nm); type: physicochemical; settings: 37° C., λabs = 525 nm
# Method: as §1
# [3] = Stability in human serum (PBS:Serum 1:1), HPLC; type: in vitro ADME; settings: 50 μM in PBS:Serum (1:1), 37° C., 5 up to 48 h, 2 up to 7 days
# Method: Stability studies of prodrug 5 in PBS:Serum were performed as follows. Stock solutions of prodrug 5 (2.5 mM) in DMSO were prepared. Aliquots of 5 stock solution (20 μL), 0.01 M PBS (480 μL) and human serum (500 μL) (Sigma-Aldrich, USA) were combined to give final concentrations of 50 μM for the 5 in PBS: Serum (1:1, v/v). The sample was thoroughly mixed and incubated at 37° C. in the dark and subsequently a 50 μL aliquot of the sample was taken at indicated time points (5 min, 6 h, 24 h and 48 h) and quenched by 200 μL ice cold acetonitrile, followed by centrifugation at 13300 rpm for 5 min. The supernatant was injected and analyzed by HPLC at 480 nm.
# Stability studies of compound 2 were performed as follows. Stock solutions of 2 (2.5 mM) in DMSO were prepared. Aliquots of 2 stock solution (20 μL), 0.01 M PBS (480 μL) and human serum (500 μL) (Sigma-Aldrich, USA) were combined to give final concentrations of 50 μM for the 2 in PBS: Serum (1:1, v/v). The sample was thoroughly mixed and incubated at 37° C. in the dark and subsequently a 50 μL aliquot of the sample was taken at indicated time points (5 min, 6 h, 24 h, 48 h, 72 h and 7 days) and quenched by 200 μL ice cold acetonitrile, followed by centrifugation at 13300 rpm for 5 min. The supernatant was injected and analyzed by HPLC at 317 nm.
Molecule,Second-order rate constant (k2) ([1]; DMSO),Second-order rate constant (k2) ([1]; 90% DMSO/H2O),Second-order rate constant (k2) ([2]; 60% DMSO/PBS (3:2)),Second-order rate constant (k2) ([2]; 90% DMSO/H2O) [M⁻¹ s⁻¹],also measured
"7-oxo-BNBD [compound 6, reference compound]",0.176 M⁻¹ s⁻¹ and 0.176 ± 0.004 M⁻¹ s⁻¹,–,–,–,–
"COc1cccc2c1C(=O)c1c(O)c3c(c(O)c1C2=O)C[C@@](O)(C(=O)CO)C[C@@H]3O[C@H]1C[C@H](N)[C@H](O)[C@H](C)O1 [Doxorubicin, reference compound]",–,–,–,–,"EC50 (A549 lung cancer cells; Homo sapiens, A549): 88 nM; EC50 (A549 lung cancer cells; Homo sapiens, A549, 72 hour incubation at 37° C.): 88 ± 31 nM"
"COCCOCCOCCNC(=O)c1ccc(-c2nncnn2)cc1 [PEG-Tz, N-(2-(2-(2-methoxyethoxy)ethoxy)ethyl)-4-(1,2,4,5-tetrazin-3-yl) benzamide]",–,–,–,–,EC50 (A549 lung cancer cells; 72 hour incubation at 37° C.): > 200000 nM; Cytotoxicity in A549 cells (A549 lung cancer cells; tested concentration range (PEG-Tz 0.02 to 200 μM; 5 0.001 to 10 μM)): no obvious toxicity; also recorded: no cytotoxicity
O=C(Nc1ccc([N+](=O)[O-])cc1)OCC12C=CC(O1)c1ccccc12 (stereo not drawn) [compound 1],0.015 M⁻¹ s⁻¹ and 0.015 ± 0.008 M⁻¹ s⁻¹,0.028 M⁻¹ s⁻¹ and 0.028 ± 0.0003 M⁻¹ s⁻¹,0.190 M⁻¹ s⁻¹ and 0.190 ± 0.029 M⁻¹ s⁻¹,0.058 ± 0.0003,Decrease of reaction rate with DPTz relative to 7-oxo-BNBD (6) ([1]; DMSO): ~12 fold
CC(=O)N1C2C=CC1(COC(=O)Nc1ccc([N+](=O)[O-])cc1)c1ccccc12 (stereo not drawn) [compound 2],0.010 M⁻¹ s⁻¹ and 0.010 ± 0.0004 M⁻¹ s⁻¹,0.017 M⁻¹ s⁻¹ and 0.017 ± 0.002 M⁻¹ s⁻¹,0.135 M⁻¹ s⁻¹ and 0.135 ± 0.010 M⁻¹ s⁻¹,0.020 ± 0.0007,Stability in human serum [3]: completely stable until the end of the analysis at one week; Unspecific payload release in human serum [3]: No free p-Nitroaniline or p-Nitroaniline-containing side products were observed; also recorded: no traces of pNA were formed; also recorded: No background liberation of reporter molecules was observed
"CC(C)(C)OC(=O)N1C2C=CC1(COC(=O)Nc1ccc([N+](=O)[O-])cc1)c1ccccc12 (stereo not drawn) [compound 3, tert-butyl 1-((((4-nitrophenyl)carbamoyl)oxy)methyl)-1,4-dihydro-1,4-epiminonaphthalene-9-carboxylate]",0.0044 M⁻¹ s⁻¹ and 0.0044 ± 0.00009 M⁻¹ s⁻¹,0.0084 M⁻¹ s⁻¹ and 0.0084 ± 0.0016 M⁻¹ s⁻¹,–,–,–
